Patent publication US12226410B2, “Methods for enhancing cellular clearance of pathological molecules via activation of the cellular protein ykt6” (NORTHWESTERN UNIVERSITY, priority 2019, dated 2025)

How the values were obtained:
[1] = tested on: ykt6 SNARE complexes; experiment: SEC/western blot of ykt6 SNARE complexes in FTI-treated cultures; format: cell-based, human; details: SH-SY5Y cells, confirmed in A53T iPSn
Protocol: FIGS. 5A, 5B, 5C, 5D, 5E, 5F, and 5G. Reducing farnesyl-ykt6 enhances SNARE assembly and improves the lysosomal targeting of GCase. 5A) Ykt6 membrane shift analysis of SH-SY5Y cells expressing GFP-ykt6 wt or CS (n=3). 5B) Co-IP of GFP-ykt6 and bet1 in A53T iPSn (n=3). 5C) Ykt6 membrane shift analysis in FTI-treated SH-SY5Y wt a-syn cells or A53T iPSn (5 nM farnesyltransferase inhibitors (FTI) LNK-754 (FTI-1) or LNK-3248 (FTI-2) for 5 days) (n=4). Sec22b was measured to assess specificity. 5D) SEC/western blot of FTI-1 treated SH-SY5Y cells. Quantification is shown below. 5E) Co-IP of GFP-ykt6 wt or mutant ykt6-SS, (cannot be palmitoylated or farnesylated) in FTI-treated SHSY5Y cells (5 nM LNK-754, 5d) (n=2). 5F) Immunofluorescence of GCase and LAMP2A in FTI-treated H4 a-syn cells transfected with scrambled (scrb) or ykt6 shRNA (n=3). Scale bar=10 um. 5G) GCase maturation analysis in FTI-treated A53T iPSn by endo H (n=3). Values are the mean+/−SEM, *p<0.05.
Size exclusion chromatography analysis. Cultures or PD brain (cingulate cortex, previously described (Mazzulli et al., 2011)) were homogenized as described above in 1% Triton buffer, centrifuged at 100,000×g for 30 min at 4° C. […]
Treatment of cultures with farnesyltransferase inhibitors. […] Cultures were harvested and analyzed as described in the above sections.

[2] = tested on: GCase; experiment: FTI treatment of wild-type mice: GCase maturation and activity in cortex; format: in vivo; details: daily i.p. 0.9 mg/kg, 14 days
Protocol: FIGS. 15A, 15B, 15C, 15D, 15E, and 15F. FTI treatment of wild-type mice enhances ykt6 SNARE complexes, lysosomal activity, and reduces a-syn. 15A) Wild-type mice (C57Bl/6) were i.p. injected daily with FTI for 14 days at 0.9 mg/kg and compared to vehicle injected mice. Extracts from the cortex were analyzed for cytosolic (cyt) and membrane (mem) distribution of ykt6 (veh, n=5; FTI, n=6). 15B) Representative gel filtration/western blot analysis of cortical extracts of veh or FTI injected wild-type mice. Inputs are shown on the left. NSE indicates equal column loading. 15C) Quantification of ykt6 and STX5 complexes (ca. 120A) from gel filtration analysis in C (n=4 mice). Fraction 1 corresponds to complexes at 120A, while fractions 7-9 correspond to ykt6 monomers at 22-14 A. 15D) The levels of post ER (endo H resistant) GCase were analyzed by western blot and post ER/ER ratios were quantified from the cortex of FTI treated mice (veh, n=5; FTI, n=6). 15E) GCase activity was assessed in cortical lysates and normalized to total protein (veh, n=4; FTI, n=6). 15F) a-Syn levels were quantified from cytosolic or membrane isolated fractions from the cortex of wild-type FTI treated mice (veh, n=4; FTI, n=6). For all quantifications, values are the mean+/−SEM, *p<0.05.
Analysis of post-ER GCase. […]

[3] = tested on: ykt6; experiment: FTI treatment of DASYN53 mice: membrane-associated ykt6 and SNARE complexes; format: in vivo; details: DASYN53 mice 12-14 months; i.p. 0.9 mg/kg, 26d; olfactory bulbs, midbrain
Protocol: FIGS. 7A, 7B, 7C, 7D, and 7E. FTI treatment restores functional membrane-associated ykt6 complexes in DASYN53 mice. 7A) Immunohistochemistry in the midbrain of mice showing ykt6, tyrosine hydroxylase (TH), NeuN, and nuclei (DAPI). Scale bar, 50 μm. 7B) Ykt6 membrane shift analysis in olfactory bulbs of FTI (LNK-754)-injected DASYN53 mice (12-14 months, i.p. 26d, 0.9 mg/kg) (n=5, non-transgenic (nTg)+veh; n=4, DASYN53+veh; n=4 DASYN53+FTI). GAPDH and sec22b are loading controls. 7C) SEC/western blot analysis of midbrains of FTI-treated DASYN53 mice. Inputs are shown on the left. NSE is a loading control. […] (n=3, nTg+veh; n=4, DASYN53+veh; n=4 DASYN53+FTI). 7D) Quantification of complexes from SEC in 7C. 7E) GCase maturation was assessed in midbrain lysates by endo H resistance (n=4, nTg+veh; n=4, DASYN53+veh; n=4 DASYN53+FTI). For all quantifications, each point represents a measurement from an individual animal. Values are the mean+/−SEM, *p<0.05; **p<0.01, ***p<0.001, ANOVA with Tukey's post-hoc test.
Treatment of C57Bl/6 and DASYN53 mice with farnesyltransferase inhibitors. 3 mo old C57BL6 mice were i.p. injected daily with 0.9 mg/kg LNK-754 that was formulated in a vehicle of 0.5% sodium carboxymethylcellulose and filtered before use for 14 days. DASYN53 mice were i.p. injected daily with 0.9 mg/kg LNK-754 as above. […]

C#Cc1cccc(-c2cc(=O)n(C)c3ccc([C@](O)(c4ccc(Cl)cc4)c4cncn4C)cc23)c1 [LNK-754]
levels of ykt6 SNARE complexes by SEC [1]: elevated the levels of ykt6 SNARE complexes
mature, endo H resistant GCase in brain ([2]; cortex): elevated levels
GCase enzyme activity in brain ([2]; cortical lysates): higher enzyme activity
reduced membrane-associated ykt6 and SNARE complexes of DASYN53 mice [3]: reversed these effects
